Literature values, collected in patent US20050107279A1, “Emulsion composition” (Unilever Home & Personal Care USA, Division of Conopco, Inc., priority 2003, published 2005).

Experiments:
[1] = AOT; range as per Sabatini et al. 1996
[2] = hydrophobic liquid
[3] = hydrophobic liquid; remark: listed apart in the source

solubility in water [2] | Log P [3] | Compound | HLB [1]
 |  | CCCCC(CC)COC(=O)CC(C(=O)OCC(CC)CCCC)S(=O)(=O)[O-].[Na+] (stereo not drawn) [AOT, Aerosol OT] | 10-14.9)
Solubility = 7 × 10^−5% | (Log P = 4.7) | CCCCCCCC [Octane] | 
